Earlier results as cited in patent US20230113077A1, “CONTROLLED RELEASE SELEXIPAG COMPOSITION” (ACTELION PHARMACEUTICALS LTD, priority 2020, published 2023).

Conditions: phase III clinical trial; patients with pulmonary arterial hypertension; selexipag versus placebo

## CC(C)N(CCCCOCC(=O)NS(C)(=O)=O)c1cnc(-c2ccccc2)c(-c2ccccc2)n1 [selexipag, 2-{4-[N-(5,6-diphenylpyrazin-2-yl)-N-isopropylamino]butyloxy}-N-(methylsulfonyl)acetamide]
  risk of the primary composite end point of death or a complication related to pulmonary arterial hypertension: significantly lower
